Some test systems named below: M19-MEL melanoma; KM20L2 colon; LXFL 529 NSCLC; RXF-631 renal; DMS 273 small cell lung; HOP-18 NSCLC; XF 498 CNS; SNB-78 CNS; MDA-N.
Common to all, as to assay: DTP human tumour cell line panel, 48 h

The values that follow come from PubChem BioAssay (NCI).

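Following 48 hours of exposure in 96-well plates, responses at five concentrations were used to interpolate endpoints linearly. Abbreviation: GI50, concentration required for 50% inhibition of growth. TGI denotes the concentration required for complete inhibition of growth.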 Where only a bound is given, the exact number is not on record here.

Consider `COc1cc(/C=C2/C(=O)N(C(=O)OCC(C)C)C(Cc3cc(OC)c(OC)c(C)c3OC)C(=O)N2Cc2ccccc2)c(OC)c(C)c1OC` (stereo not drawn), for which the TGI in the assay with M19-MEL melanoma, in the assay with KM20L2 colon, in the assay on LXFL 529 NSCLC, in the assay with RXF-631 renal, with DMS 273 small cell lung and in the assay on HOP-18 NSCLC was over 100 µM throughout.
Take `OC(c1ccccc1)(c1ccccc1)c1ccncc1`: the TGI in the assay on M19-MEL melanoma, in the assay with KM20L2 colon, with LXFL 529 NSCLC, with XF 498 CNS, in the assay on SNB-78 CNS and with DMS 273 small cell lung was over 100 µM in each case. In the assay on HOP-18 NSCLC, this molecule showed a TGI of over 100 µM.
In the assay on MDA-N, `CCC1C2Cc3ccc(O)cc3C1(CC)CCN2C` (stereo not drawn) returned a TGI of over 100 µM.
`Cc1cc(O)c(C(C)C)cc1S(=O)(=O)O` (tested in a mixture with another compound): the TGI with M19-MEL melanoma, in the assay on KM20L2 colon, with LXFL 529 NSCLC, in the assay on SNB-78 CNS and in the assay on DMS 273 small cell lung was over 100 µM in each case.
`COc1cc2c(c(OC)c1OC)-c1ccc(SC)c(=O)cc1C(CO)C2` (stereo not drawn): the GI50 with M19-MEL melanoma, in the assay with KM20L2 colon and with LXFL 529 NSCLC was under 0.01 µM in each case. For the same molecule, the TGI was over 100 µM in the assay on M19-MEL melanoma; over 100 µM with LXFL 529 NSCLC; 0.605 µM with XF 498 CNS; over 100 µM with RXF-631 renal; over 100 µM with HOP-18 NSCLC.
As to `O=C([CH-]C(=O)c1ccccc1)c1ccccc1.O=C([CH-]C(=O)c1ccccc1)c1ccccc1.[La+3].[OH-].[OH3+]`, in the assay with KM20L2 colon, the GI50 was 22.4 µM and the concentration for total growth inhibition (TGI) was 68.7 µM.
Turning to `CCOc1ccccc1N1C(=O)C(=O)C(c2nc3ccccc3o2)C(=O)C1=O`, the TGI in the assay on M19-MEL melanoma, with KM20L2 colon, with LXFL 529 NSCLC, with SNB-78 CNS, with RXF-631 renal and with DMS 273 small cell lung was over 100 µM throughout. Besides, the TGI with HOP-18 NSCLC is over 100 µM.
In the assay on MDA-N, `O=C1c2ccccc2C(O)(O)C1(O)C1(O)C(=O)c2ccccc2C1(O)O` (stereo not drawn) yielded a TGI of 48 µM.
In the case of `CCOC(=O)N1CCN(C=S)CC1`, the TGI in the assay on M19-MEL melanoma, in the assay on KM20L2 colon, in the assay with LXFL 529 NSCLC, with SNB-78 CNS, in the assay with RXF-631 renal and in the assay on DMS 273 small cell lung was over 100 µM each time. Moreover, the TGI with HOP-18 NSCLC was over 100 µM.
Regarding `CCCCNc1nc(C#N)c(N)s1`, the TGI in the assay with KM20L2 colon, in the assay on LXFL 529 NSCLC, with XF 498 CNS, in the assay on SNB-78 CNS, in the assay with RXF-631 renal and in the assay with DMS 273 small cell lung was over 100 µM throughout.
For the molecule `CC(C)C1CC[C@@H](C)C[C@@]1(O)CC(N)=O` (stereo partly drawn), the TGI in the assay on M19-MEL melanoma is over 100 µM; in the assay with KM20L2 colon, over 100 µM; with LXFL 529 NSCLC, over 100 µM; in the assay on XF 498 CNS, 0.856 µM; in the assay on SNB-78 CNS, over 100 µM; with RXF-631 renal, over 100 µM. In addition, the TGI in the assay with DMS 273 small cell lung and in the assay on HOP-18 NSCLC was over 100 µM each time.
On to `COc1ccc2nc3cccc([N+](=O)[O-])c3c(NCCCCCC(=O)O)c2c1`, for which, in the assay with MDA-N, the GI50 is 0.0263 µM and the TGI is 0.117 µM.
Consider `CN1C(=Nc2ccccc2)SC1=Nc1ccccc1`, for which the TGI in the assay on M19-MEL melanoma is 65.2 µM; with LXFL 529 NSCLC it was over 100 µM; in the assay with XF 498 CNS, 73.3 µM; with SNB-78 CNS, over 100 µM; in the assay on DMS 273 small cell lung, over 100 µM; in the assay with HOP-18 NSCLC it was over 100 µM.
Consider `O=C(O)C(/C=C/c1ccccc1)c1ccccc1` (stereo not drawn), for which the TGI with MDA-N is over 100 µM.
Consider `COc1c(C)c2c(c(O)c1C/C=C(\C)CCC(=O)O)C(=O)OC2`, for which the TGI with M19-MEL melanoma, in the assay on LXFL 529 NSCLC, with MDA-N, in the assay with DMS 273 small cell lung and in the assay on HOP-18 NSCLC was over 100 µM each time.
For the molecule `CCS(CC)(CC)CC1CCCC2=CCC(P(=O)(c3ccccc3)c3ccccc3)CC21` (stereo not drawn), the TGI in the assay on M19-MEL melanoma was found to be 36.5 µM; in the assay with KM20L2 colon, 25.2 µM; in the assay with LXFL 529 NSCLC, 22.4 µM; in the assay on XF 498 CNS, 17.4 µM; in the assay on SNB-78 CNS it was 37.1 µM; with RXF-631 renal, 31.5 µM. Further, the TGI in the assay with DMS 273 small cell lung was found to be 26.4 µM; in the assay on HOP-18 NSCLC, 40.3 µM.
Take `Nc1ccnc(=O)[nH]1`: the concentration for total growth inhibition (TGI) in the assay with M19-MEL melanoma, with KM20L2 colon, with LXFL 529 NSCLC, in the assay with XF 498 CNS, in the assay on SNB-78 CNS and in the assay with RXF-631 renal was over 100 µM throughout. The total growth inhibition concentration (TGI) in the assay with DMS 273 small cell lung and in the assay with HOP-18 NSCLC was over 100 µM in each case.
Take `COC(=O)C1(C)CCC(c2ccc(C)cc2)=C(CC(=O)O)C1` (stereo not drawn): the TGI with MDA-N was over 100 µM.
Consider `CCOc1ccc2c(c1)[n+]([O-])c(-c1ccc(Cl)cc1)c(N)[n+]2[O-]`, for which the TGI in the assay with KM20L2 colon, in the assay on LXFL 529 NSCLC, in the assay on SNB-78 CNS, in the assay on DMS 273 small cell lung and in the assay on HOP-18 NSCLC was over 100 µM each time.
With `COC(=O)/C(C)=C(/CCC1(C)OCCO1)O[Si](C)(C)C`, the TGI in the assay with M19-MEL melanoma, in the assay on KM20L2 colon, in the assay on LXFL 529 NSCLC, in the assay with XF 498 CNS, with SNB-78 CNS and in the assay with DMS 273 small cell lung was over 100 µM throughout. In addition, the TGI in the assay on HOP-18 NSCLC was over 100 µM.
Regarding `c1ccc2c(c1)cc(C1NCCc3[nH]cnc31)c1ccccc12` (stereo not drawn), the TGI in the assay on M19-MEL melanoma was over 59.5 µM; in the assay on KM20L2 colon it was over 100 µM; with LXFL 529 NSCLC, over 63.5 µM; with XF 498 CNS it was 79 µM; in the assay on SNB-78 CNS it was over 100 µM; with RXF-631 renal, over 100 µM. In addition, the results for the TGI in the assay on DMS 273 small cell lung and with HOP-18 NSCLC were 87.9 µM and over 100 µM, respectively.
Consider `Oc1ccccc1/C=C/c1csnn1`, for which the TGI in the assay with M19-MEL melanoma, in the assay with KM20L2 colon, in the assay with LXFL 529 NSCLC, with XF 498 CNS, in the assay on SNB-78 CNS and in the assay with RXF-631 renal was over 100 µM in each case. For the same molecule, the TGI in the assay with DMS 273 small cell lung and in the assay with HOP-18 NSCLC was over 100 µM each time.
As to `Cc1cc(=O)n(-c2ccccc2C)c(C)n1`, the TGI in the assay on M19-MEL melanoma, in the assay on KM20L2 colon, in the assay with LXFL 529 NSCLC, with SNB-78 CNS, in the assay on RXF-631 renal and with DMS 273 small cell lung was over 100 µM in each case. This molecule gave a TGI in the assay on HOP-18 NSCLC of over 100 µM.
For the molecule `CCc1cc(C(=O)OC)cn1C(=N)c1ccc(Cl)cc1`, the TGI with M19-MEL melanoma, in the assay with KM20L2 colon, in the assay with LXFL 529 NSCLC, in the assay with XF 498 CNS, in the assay on SNB-78 CNS and in the assay on DMS 273 small cell lung was over 100 µM each time. In the assay with HOP-18 NSCLC, this molecule returned a TGI of over 100 µM.
In the case of `CCC[CH2][Sn]1([CH2]CCC)[O]C(=O)c2cccnc2[O]1`, the GI50 was 4.26 µM in the assay with M19-MEL melanoma; 3.96 µM with KM20L2 colon; 0.849 µM in the assay on LXFL 529 NSCLC; 1.38 µM in the assay with XF 498 CNS; 2.07 µM in the assay with SNB-78 CNS; 1.43 µM with RXF-631 renal. For the same molecule, in the assay on DMS 273 small cell lung, the GI50 is 2.37 µM. Also, the TGI in the assay with M19-MEL melanoma was 15.3 µM; with KM20L2 colon, 11.9 µM; with LXFL 529 NSCLC it was 2.22 µM; in the assay on XF 498 CNS it was 2.92 µM; with SNB-78 CNS, 7.73 µM; in the assay on RXF-631 renal it was 2.73 µM. Further, the TGI in the assay with DMS 273 small cell lung was 11.3 µM.
For `O=C(O)C(SC(=S)c1ccc(C(=S)SC(C(=O)O)c2ccccc2)cc1)c1ccccc1` (stereo not drawn), the TGI with LXFL 529 NSCLC, in the assay on XF 498 CNS, with SNB-78 CNS, with RXF-631 renal and in the assay on DMS 273 small cell lung was over 100 µM each time.
`CP1(=O)CCCCC1`: the TGI with M19-MEL melanoma, in the assay with KM20L2 colon, in the assay on LXFL 529 NSCLC, in the assay on XF 498 CNS, in the assay with SNB-78 CNS and in the assay on DMS 273 small cell lung was over 100 µM in each case. The molecule also gave a TGI in the assay with HOP-18 NSCLC of over 100 µM.
For the molecule `Oc1c(C(Nc2cccc3cccnc23)c2ccccc2)ccc2cccnc12` (stereo not drawn), the TGI in the assay on M19-MEL melanoma is over 100 µM; in the assay on KM20L2 colon, over 100 µM; with LXFL 529 NSCLC, over 100 µM; with DMS 273 small cell lung, over 100 µM; in the assay on HOP-18 NSCLC it was 93.2 µM.
In the case of `N#CC(NC12CC3CC(CC(C3)C1)C2)c1ccc2c(c1)OCO2` (stereo not drawn), in the assay on MDA-N, the TGI was over 100 µM.
As for `COc1cc2ccc(/C=C\[N+](=O)[O-])cc2cc1OC`, the TGI in the assay with MDA-N turned out to be 5.78 µM.
Consider `CC(=O)OCC1OC(n2cnc(C(N)=S)c2N)C(OC(C)=O)C1OC(C)=O` (stereo not drawn), for which the TGI in the assay with MDA-N is over 100 µM.
Turning to `COc1ccc2n[se]nc2c1`, the TGI in the assay on KM20L2 colon, with LXFL 529 NSCLC, in the assay with XF 498 CNS, in the assay on SNB-78 CNS, in the assay with RXF-631 renal and in the assay with DMS 273 small cell lung was over 100 µM each time.
On to `CCC(C)(CC(C)(C)C(=O)NCC(=O)NC(Cc1ccccc1)C(=O)NC(Cc1ccccc1)C(=O)NCC(=O)NC1CC(OC2CC(O)(C(=O)CO)Cc3c(O)c4c(c(O)c32)C(=O)c2c(OC)cccc2C4=O)OC(C)C1O)C(=O)NCC(C)O` (stereo not drawn), for which, in the assay with MDA-N, the GI50 is 120 µg/mL and the TGI was over 150 µg/mL.
